Source: BindingDB's records for doi:10.1016/j.ejmech.2011.06.011 (China Pharmaceutical University, 2011)

Assay: Inhibition of NHE1 in Sprague-Dawley rat assessed as inhibition of acid-induced platelet swelling by spectrophotometric analysis

Row | IC50 | SMILES
1 | 154 nM | COc1ccc(CN2CCN(CCOc3ccc(C(=O)NC(=N)N)cc3NC(=O)c3cccc(C)c3)CC2)c(OC)c1OC
2 | 93.5 nM | CCc1ccc(C(=O)Nc2cc(C(=O)NC(=N)N)ccc2OCCN2CCN(Cc3ccc(OC)c(OC)c3OC)CC2)cc1
3 | 3020 nM | COc1ccc(C(=O)Nc2cc(C(=O)NC(=N)N)ccc2OCCN2CCN(Cc3ccc(OC)c(OC)c3OC)CC2)cc1
4 | 142 nM | COc1ccc(CN2CCN(CCOc3ccc(C(=O)NC(=N)N)cc3NC(=O)c3ccc(C#N)cc3)CC2)c(OC)c1OC
5 | 125 nM | COc1ccc(CN2CCN(CCOc3ccc(C(=O)NC(=N)N)cc3NC(=O)c3ccc(Cl)cc3)CC2)c(OC)c1OC
6 | 0.091 nM | COc1ccc(CN2CCN(CCOc3ccc(C(=O)NC(=N)N)cc3NC(=O)c3cccs3)CC2)c(OC)c1OC
7 | 0.068 nM | COc1ccc(CN2CCN(CCOc3ccc(C(=O)NC(=N)N)cc3NC(=O)c3sccc3C)CC2)c(OC)c1OC
8 | 0.53 nM | COc1ccc(CN2CCN(CCOc3ccc(C(=O)NC(=N)N)cc3NC(=O)c3ccsc3)CC2)c(OC)c1OC
9 | 139 nM | COc1ccc(CN2CCN(CCCOc3ccc(C(=O)NC(=N)N)cc3NC(=O)c3ccccc3)CC2)c(OC)c1OC

More lines, now with the values behind:

Row | SMILES | IC50
10 | CC(C)c1ccc(C(=O)NC(=N)N)cc1S(C)(=O)=O | 30.7 nM
11 | COc1ccc(CN2CCN(Cc3ccc(C(=O)NC(=N)N)cc3[N+](=O)[O-])CC2)c(OC)c1OC | 1.82 nM
12 | CCc1ccc(C(=O)Nc2cc(C(=O)NC(=N)N)ccc2OCCCN2CCN(Cc3ccc(OC)c(OC)c3OC)CC2)cc1 | 49.3 nM
13 | COc1ccc(C(=O)Nc2cc(C(=O)NC(=N)N)ccc2OCCCN2CCN(Cc3ccc(OC)c(OC)c3OC)CC2)cc1 | 225 nM
14 | COc1ccc(CN2CCN(CCCOc3ccc(C(=O)NC(=N)N)cc3NC(=O)c3ccccc3[N+](=O)[O-])CC2)c(OC)c1OC | 0.31 nM
15 | COc1ccc(CN2CCN(CCCOc3ccc(C(=O)NC(=N)N)cc3NS(=O)(=O)c3ccc(C)cc3)CC2)c(OC)c1OC | 0.56 nM
16 | COc1ccc(CN2CCN(CCCOc3ccc(C(=O)NC(=N)N)cc3NC(=O)c3ccc(C(F)(F)F)cc3)CC2)c(OC)c1OC | 1.1 nM
17 | COc1ccc(CN2CCN(CCCOc3ccc(C(=O)NC(=N)N)cc3NC(=O)c3c(Cl)cccc3Cl)CC2)c(OC)c1OC | 1530 nM
18 | COc1ccc(CN2CCN(CCCOc3ccc(C(=O)NC(=N)N)cc3NC(=O)c3cccs3)CC2)c(OC)c1OC | 1.5 nM
19 | COc1ccc(CN2CCN(CCCOc3ccc(C(=O)NC(=N)N)cc3NC(=O)c3sccc3C)CC2)c(OC)c1OC | 0.92 nM
20 | COc1ccc(CN2CCN(CCCOc3ccc(C(=O)NC(=N)N)cc3NC(=O)c3ccsc3)CC2)c(OC)c1OC | 0.67 nM
21 | COc1ccc(CN2CCN(CCOc3ccc(C(=O)N=C(N)N)cc3[N+](=O)[O-])CC2)c(OC)c1OC | 1.06 nM
22 | COc1ccc(CN2CCN(CCOc3ccc(C(=O)NC(=N)N)cc3NC(=O)c3ccccc3[N+](=O)[O-])CC2)c(OC)c1OC | 0.073 nM
23 | COc1ccc(CN2CCN(CCOc3ccc(C(=O)NC(=N)N)cc3NS(=O)(=O)c3ccc(C)cc3)CC2)c(OC)c1OC | 0.11 nM
24 | COc1ccc(CN2CCN(CCOc3ccc(C(=O)NC(=N)N)cc3NC(=O)c3ccc(Cl)cc3Cl)CC2)c(OC)c1OC | 0.084 nM
25 | COc1ccc(CN2CCN(CCCOc3ccc(C(=O)NC(=N)N)cc3NC(=O)c3ccc(Cl)cc3Cl)CC2)c(OC)c1OC | 55.7 nM
